Tests used:
[1] = molecular target: T1, mTORC1 (Homo sapiens, UniProt P42345+P62942); assay: Inhibition assay for mTORC1: phosphorylation of pS6K at Thr389, AlphaLISA SureFire in PC3 cells; format: cell-based; conditions: PC3 cells, 24 hours treatment, pS6K Thr389; analogs substituted at C40 and C16 (C16 diastereomer mixtures not isolated); read-out: pIC50 mTORC1 (converted)
T1 construct: endogenous in cells; host or cells: PC3 cells (human prostate adenocarcinoma)
Method: (§1) The IC50s of the inhibition of mTORC1 and mTORC2 were determined in vitro by determining the phosphorylation of pS6K at position Thr389 (mTORC1 inhibition) and pAkt at Ser473 (mTORC2 inhibition). In vitro studies were performed with AiphaLISA® technology using PC3 cells (Prostate Adenocarcinoma; Human (Homo sapiens)). The cells were seeded in 96 well plates and were treated for 24 hours with the different compounds. […] All analysis were performed using GraphPad Prism 7.0 (GraphPad Software, San Diego, USA).
Tables 5-7 include PIC50 values for mTORC1 of selected compounds; with compounds having an PIC50 for mTORC1 of >9.5 as A, 8.5 to 9.5 as B, and less than 8.5 as C.

[2] = molecular target: T2, mTORC2 (Homo sapiens, UniProt P42345+P62942); assay: Inhibition assay for mTORC2: phosphorylation of pAkt at Ser473, AlphaLISA SureFire in PC3 cells; format: cell-based; conditions: PC3 cells, 24 hours treatment, analogs substituted at C40 and C16 (C16 diastereomer mixtures not isolated), read-out: pIC50 mTORC2 (converted)
T2 construct: endogenous in cells; host or cells: PC3 cells (human prostate adenocarcinoma)
Method: as §1, with “USA). […]” for “USA).”

SMILES: CO[C@@H]1C[C@H](C[C@@H](C)[C@@H]2CC(=O)[C@H](C)/C=C(\C)[C@@H](O)[C@@H](OC)C(=O)[C@H](C)C[C@H](C)/C=C/C=C/C=C(\C)C(OCCc3ccccc3)C[C@@H]3CC[C@@H](C)[C@@](O)(O3)C(=O)C(=O)N3CCCCC3C(=O)O2)CC[C@H]1OC(=O)N(C)CCO (stereo partly drawn) [Compound 105]
- IC50 [1]: < 0.316 nM
- IC50 [2]: < 1000 nM

SMILES: CO[C@@H]1C[C@H](C[C@@H](C)[C@@H]2CC(=O)[C@H](C)/C=C(\C)[C@@H](O)[C@@H](OC)C(=O)[C@H](C)C[C@H](C)/C=C/C=C/C=C(\C)C(OCCc3ccccc3)C[C@@H]3CC[C@@H](C)[C@@](O)(O3)C(=O)C(=O)N3CCCCC3C(=O)O2)CC[C@H]1OCCCN1CCN(C)CC1 (stereo partly drawn) [Compound 97]
- IC50 [1]: < 0.316 nM
- IC50 [2]: < 1000 nM

SMILES: COCCOC1C[C@@H]2CC[C@@H](C)[C@@](O)(O2)C(=O)C(=O)N2CCCCC2C(=O)O[C@H]([C@H](C)C[C@@H]2CC[C@@H](OC[C@@H](O)CO)[C@H](OC)C2)CC(=O)[C@H](C)/C=C(\C)[C@@H](O)[C@@H](OC)C(=O)[C@H](C)C[C@H](C)/C=C/C=C/C=C/1C (stereo partly drawn) [Compound 58]
- IC50 [1]: < 0.316 nM
- IC50 [2]: 1000 to 10000 nM

SMILES: CO[C@@H]1C[C@H](C[C@@H](C)[C@@H]2CC(=O)[C@H](C)/C=C(\C)[C@@H](O)[C@@H](OC)C(=O)[C@H](C)C[C@H](C)/C=C/C=C/C=C(\C)C(OCCOCCO)C[C@@H]3CC[C@@H](C)[C@@](O)(O3)C(=O)C(=O)N3CCCCC3C(=O)O2)CC[C@H]1OCCCO (stereo partly drawn) [Compound 53]
- IC50 [1]: 0.316 to 3.16 nM
- IC50 [2]: > 10000 nM

SMILES: COCCCO[C@@H]1CC[C@@H](C[C@@H](C)[C@@H]2CC(=O)[C@H](C)/C=C(\C)[C@@H](O)[C@@H](OC)C(=O)[C@H](C)C[C@H](C)/C=C/C=C/C=C(\C)C(OCCO)C[C@@H]3CC[C@@H](C)[C@@](O)(O3)C(=O)C(=O)N3CCCCC3C(=O)O2)C[C@H]1OC (stereo partly drawn) [Compound 3]
- IC50 [1]: < 0.316 nM
- IC50 [2]: > 10000 nM

SMILES: CO[C@@H]1C[C@H](C[C@@H](C)[C@@H]2CC(=O)[C@H](C)/C=C(\C)[C@@H](O)[C@@H](OC)C(=O)[C@H](C)C[C@H](C)/C=C/C=C/C=C(\C)C(OCc3ccccc3)C[C@@H]3CC[C@@H](C)[C@@](O)(O3)C(=O)C(=O)N3CCCCC3C(=O)O2)CC[C@H]1OCCCc1ccccc1 (stereo partly drawn) [Compound 116]
- IC50 [1]: 0.316 to 3.16 nM
- IC50 [2]: < 1000 nM

SMILES: COCCOC1C[C@@H]2CC[C@@H](C)[C@@](O)(O2)C(=O)C(=O)N2CCCCC2C(=O)O[C@H]([C@H](C)C[C@@H]2CC[C@@H](OCCN3CCN(C)CC3)[C@H](OC)C2)CC(=O)[C@H](C)/C=C(\C)[C@@H](O)[C@@H](OC)C(=O)[C@H](C)C[C@H](C)/C=C/C=C/C=C/1C (stereo partly drawn) [Compound 47]
- IC50 [1]: < 0.316 nM
- IC50 [2]: 1000 to 10000 nM

SMILES: CO[C@@H]1C[C@H](C[C@@H](C)[C@@H]2CC(=O)[C@H](C)/C=C(\C)[C@@H](O)[C@@H](OC)C(=O)[C@H](C)C[C@H](C)/C=C/C=C/C=C(\C)C(OCCO)C[C@@H]3CC[C@@H](C)[C@@](O)(O3)C(=O)C(=O)N3CCCCC3C(=O)O2)CC[C@H]1OC(=O)NCCN1CCOCC1 (stereo partly drawn) [Compound 82]
- IC50 [1]: 0.316 to 3.16 nM
- IC50 [2]: 1000 to 10000 nM

SMILES: CO[C@@H]1C[C@H](C[C@@H](C)[C@@H]2CC(=O)[C@H](C)/C=C(\C)[C@@H](O)[C@@H](OC)C(=O)[C@H](C)C[C@H](C)/C=C/C=C/C=C(\C)C(OCCO)C[C@@H]3CC[C@@H](C)[C@@](O)(O3)C(=O)C(=O)N3CCCCC3C(=O)O2)CC[C@H]1OC(=O)NCCO (stereo partly drawn) [Compound 64]
- IC50 [1]: 0.316 to 3.16 nM
- IC50 [2]: > 10000 nM

SMILES: CO[C@@H]1C[C@H](C[C@@H](C)[C@@H]2CC(=O)[C@H](C)/C=C(\C)[C@@H](O)[C@@H](OC)C(=O)[C@H](C)C[C@H](C)/C=C/C=C/C=C(\C)C(OCCO)C[C@@H]3CC[C@@H](C)[C@@](O)(O3)C(=O)C(=O)N3CCCCC3C(=O)O2)CC[C@H]1OCCCc1ccccc1 (stereo partly drawn) [Compound 38]
- IC50 [1]: 0.316 to 3.16 nM
- IC50 [2]: > 10000 nM

SMILES: CO[C@@H]1C[C@H](C[C@@H](C)[C@@H]2CC(=O)[C@H](C)/C=C(\C)[C@@H](O)[C@@H](OC)C(=O)[C@H](C)C[C@H](C)/C=C/C=C/C=C(\C)C(OCCC3CCOCC3)C[C@@H]3CC[C@@H](C)[C@@](O)(O3)C(=O)C(=O)N3CCCCC3C(=O)O2)CC[C@H]1OCCCO (stereo partly drawn) [Compound 106]
- IC50 [1]: 0.316 to 3.16 nM
- IC50 [2]: 1000 to 10000 nM

SMILES: COCCCOC1C[C@@H]2CC[C@@H](C)[C@@](O)(O2)C(=O)C(=O)N2CCCCC2C(=O)O[C@H]([C@H](C)C[C@@H]2CC[C@@H](OCCO)[C@H](OC)C2)CC(=O)[C@H](C)/C=C(\C)[C@@H](O)[C@@H](OC)C(=O)[C@H](C)C[C@H](C)/C=C/C=C/C=C/1C (stereo partly drawn) [Compound 31]
- IC50 [1]: < 0.316 nM
- IC50 [2]: 1000 to 10000 nM

SMILES: CO[C@@H]1C[C@H](C[C@@H](C)[C@@H]2CC(=O)[C@H](C)/C=C(\C)[C@@H](O)[C@@H](OC)C(=O)[C@H](C)C[C@H](C)/C=C/C=C/C=C(\C)C(OC[C@@H](O)c3ccccc3)C[C@@H]3CC[C@@H](C)[C@@](O)(O3)C(=O)C(=O)N3CCCCC3C(=O)O2)CC[C@H]1OCCCO (stereo partly drawn) [Compound 90]
- IC50 [1]: < 0.316 nM
- IC50 [2]: 1000 to 10000 nM

SMILES: CO[C@@H]1C[C@H](C[C@@H](C)[C@@H]2CC(=O)[C@H](C)/C=C(\C)[C@@H](O)[C@@H](OC)C(=O)[C@H](C)C[C@H](C)/C=C/C=C/C=C(\C)C(OCCc3ccccc3)C[C@@H]3CC[C@@H](C)[C@@](O)(O3)C(=O)C(=O)N3CCCCC3C(=O)O2)CC[C@H]1OC(=O)NCCN1CCOCC1 (stereo partly drawn) [Compound 93]
- IC50 [1]: < 0.316 nM
- IC50 [2]: < 1000 nM

SMILES: COCCOC1C[C@@H]2CC[C@@H](C)[C@@](O)(O2)C(=O)C(=O)N2CCCCC2C(=O)O[C@H]([C@H](C)C[C@@H]2CC[C@@H](OCCCN3CCC[C@H](O)C3)[C@H](OC)C2)CC(=O)[C@H](C)/C=C(\C)[C@@H](O)[C@@H](OC)C(=O)[C@H](C)C[C@H](C)/C=C/C=C/C=C/1C (stereo partly drawn) [Compound 54]
- IC50 [1]: < 0.316 nM
- IC50 [2]: 1000 to 10000 nM

SMILES: CO[C@@H]1C[C@H](C[C@@H](C)[C@@H]2CC(=O)[C@H](C)/C=C(\C)[C@@H](O)[C@@H](OC)C(=O)[C@H](C)C[C@H](C)/C=C/C=C/C=C(\C)C(OCC(C)(C)O)C[C@@H]3CC[C@@H](C)[C@@](O)(O3)C(=O)C(=O)N3CCCCC3C(=O)O2)CC[C@H]1OCCCO (stereo partly drawn) [Compound 98]
- IC50 [1]: 0.316 to 3.16 nM
- IC50 [2]: 1000 to 10000 nM

SMILES: CO[C@@H]1C[C@H](C[C@@H](C)[C@@H]2CC(=O)[C@H](C)/C=C(\C)[C@@H](O)[C@@H](OC)C(=O)[C@H](C)C[C@H](C)/C=C/C=C/C=C(\C)C(OCCO)C[C@@H]3CC[C@@H](C)[C@@](O)(O3)C(=O)C(=O)N3CCCCC3C(=O)O2)CC[C@H]1OC(=O)N(C)CCN1CCOCC1 (stereo partly drawn) [Compound 41, [(1R,2R,4S)-4-[(2R)-2-[(1R,9S,12S,15R,16E,18R,19R,21R,23S,24E,26E,28E,32S,35R)-1,18-dihydroxy-30-(2-hydroxyethoxy)-19-methoxy-15,17,21,23,29,35-hexamethyl-2,3,10,14,20-pentaoxo-11,36-dioxa-4-azatricyclo[30.3.1.0^4,9]hexatriaconta-16,24,26,28-tetraen-12-yl]propyl]-2-methoxy-cyclohexyl] N-methyl-N-(2-morpholinoethyl)carbamate]
- IC50 [1]: < 0.316 nM
- IC50 [2]: 1000 to 10000 nM

SMILES: CO[C@@H]1C[C@H](C[C@@H](C)[C@@H]2CC(=O)[C@H](C)/C=C(\C)[C@@H](O)[C@@H](OC)C(=O)[C@H](C)C[C@H](C)/C=C/C=C/C=C(\C)C(OCCc3ccccc3)C[C@@H]3CC[C@@H](C)[C@@](O)(O3)C(=O)C(=O)N3CCCCC3C(=O)O2)CC[C@H]1OCCCN1CCCCC1 (stereo partly drawn) [Compound 101]
- IC50 [1]: < 0.316 nM
- IC50 [2]: < 1000 nM

SMILES: CO[C@@H]1C[C@H](C[C@@H](C)[C@@H]2CC(=O)[C@H](C)/C=C(\C)[C@@H](O)[C@@H](OC)C(=O)[C@H](C)C[C@H](C)/C=C/C=C/C=C(\C)C(OC[C@H](O)c3ccccc3)C[C@@H]3CC[C@@H](C)[C@@](O)(O3)C(=O)C(=O)N3CCCCC3C(=O)O2)CC[C@H]1OCCO (stereo partly drawn) [Compound 88]
- IC50 [1]: < 0.316 nM
- IC50 [2]: 1000 to 10000 nM

SMILES: CO[C@@H]1C[C@H](C[C@@H](C)[C@@H]2CC(=O)[C@H](C)/C=C(\C)[C@@H](O)[C@@H](OC)C(=O)[C@H](C)C[C@H](C)/C=C/C=C/C=C(\C)C(OCCO)C[C@@H]3CC[C@@H](C)[C@@](O)(O3)C(=O)C(=O)N3CCCCC3C(=O)O2)CC[C@H]1OCCCN1CCCCC1 (stereo partly drawn) [Compound 87, (1R,9S,12S,15R,16E,18R,19R,21R,23S,24E,26E,28E,32S,35R)-1,18-dihydroxy-30-(2-hydroxyethoxy)-19-methoxy-12-[(1R)-2-[(1S,3R,4R)-3-methoxy-4-[3-(1-piperidyl)propoxy]cyclohexyl]-1-methyl-ethyl]-15,17,21,23,29,35-hexamethyl-11,36-dioxa-4-azatricyclo[30.3.1.0^4,9]hexatriaconta-16,24,26,28-tetraene-2,3,10,14,20-pentone]
- IC50 [1]: 0.316 to 3.16 nM
- IC50 [2]: 1000 to 10000 nM

SMILES: CO[C@@H]1C[C@H](C[C@@H](C)[C@@H]2CC(=O)[C@H](C)/C=C(\C)[C@@H](O)[C@@H](OC)C(=O)[C@H](C)C[C@H](C)/C=C/C=C/C=C(\C)C(OCCO)C[C@@H]3CC[C@@H](C)[C@@](O)(O3)C(=O)C(=O)N3CCCCC3C(=O)O2)CC[C@H]1OCCCCN1CCOCC1 (stereo partly drawn) [Compound 50]
- IC50 [1]: < 0.316 nM
- IC50 [2]: 1000 to 10000 nM
